“Also recorded” adds a separate entry of the source.
Assays:
STARS = STARS expression in C2C12 myotubes after actin disruption; assay type: cell-based; settings: p<0.03, not shown
Source text: Additional pathway analysis using MAPPFinder confirmed that serum response factor (SRF)-dependent and actin-related cytoskeleton gene expression is increased in diabetes, and more importantly, also in insulin resistance. The top-ranking single gene differentially expressed in skeletal muscle in the fasting state is the Actin-binding Rho activating protein (ABRA), or STARS, increased by 2.5 fold in individuals with type 2 diabetes (p<0.01). This gene regulates intracellular actin dynamics and subcellular localization of MKL1/2, thus contributing to SRF-dependent gene transcription. Since disruption of actin by latrunculin B increases STARS expression in C2C12 cells by 50% in C2C12 myotubes (p<0.03, not shown), it was hypothesize that increased STARS expression in DM may reflect disruption of actin dynamics and also contribute to the pattern of increased SRF-related gene expression. Similar patterns of SRF-dependent expression are also observed in adipose tissue from insulin resistant subjects and in insulin resistant muscle.

[1] = tested on: MKL1-dependent and -independent SRF pathways; test: Gene set enrichment of SRF pathways in C2C12 myotubes; assay type: cell-based; settings: compared with control BSA treated cells
[2] = tested on: SRF transcriptional activity; test: SRF transcriptional activity, 4x CArG (SRE) promoter luciferase reporter in C2C12 cells; assay type: cell-based
Source text: To determine whether SRF transcriptional activity is also changed in insulin resistance, 4× tandem repeat of SRF binding element (SRE) CArG boxes (Kuwahara et al., Mol. Cell Biol. 25:3173-3181 (2005)) promoters linked to a luciferase gene were used as a reporter.

SRF = test: Low density DNA binding arrays, SRF DNA binding activity; assay type: cell-based; settings: C2C12 myotubes
Procedure: To explore the above possibility, DNA binding activity of SRF and it co-factor ELK1 to the target gene promoter was first evaluated. To this end, electrophoretic mobility shift assays (EMSA) were performed. […] In support to this idea, in low density DNA binding arrays, SRF DNA binding activity was dramatically (5-10 fold, respectively) increased in primary myotubes from insulin resistant human and free fatty acid (FFA)-treated C2C12 myotubes compared to control.

[3] = tested on: SRF target gene expression; test: SRF target gene expression in CCG-1423 treated cells; assay type: cell-based; settings: basal or insulin stimulated state
Source text: (§1) The molecular mechanism of the ability of CCG-1423 to reverse insulin resistance was further explored. The insulin—insulin receptor (1R)—insulin receptor substrate (IRS-1) pathway is the dominant up-stream signalling activator of Akt.

[4] = tested on: mice with diet-induced obesity; test: CCG-1423 treatment of mice with diet-induced obesity (HFD); assay type: in vivo
Procedure: To examine the therapeutic potential of this SRF inhibitor in vivo, we assessed responses to CCG-1423 treatment in mice with diet-induced obesity. […] The HFD mice were administered CCG-1423 (0.15 mg/kg body weight intraperitoneally) for two weeks.
In parallel, the high insulin levels associated with insulin resistance were normalized by CCG-1423 treatment (FIG. 13C).

C2C12 myotubes = test: Deoxyglucose uptake in cultured (C2C12) myotubes; assay type: cell-based; settings: FIG. 11E
Source text: (§2) siRNA was used to specifically reduce MKL1 expression, achieving an effective knockdown of about 60%. This increased insulin-stimulated phosphorylation of Akt (Ser473), expressed relative to total Akt protein content, by 2-fold (p<0.01). […] Thus, siRNA-mediated reduction in MKL1 expression enhances both basal and insulin-stimulated glucose uptake in cultured myotubes.
(§3) Since CCG-1423 increased insulin signalling in myotubes, we hypothesized that CCG-1423 might also enhance glucose uptake. In DMSO (vehicle)-treated myotubes, insulin stimulated a 2-fold increase in deoxyglucose uptake in a dose-dependent manner, consistent with prior reports and the low insulin responsiveness in cultured myotubes (FIG. 11E). […] In parallel, expression of the dominant glucose transporters GLUT4 and GLUT1 was increased by CCG-1423 treatment by 4.1 and 2.5 fold, respectively (p<0.004).

GLUT1 = GLUT1 expression in myotubes; assay type: cell-based; settings: CCG-1423 treatment, p<0.004
Source text: as §3

GLUT4 = GLUT4 expression in myotubes; assay type: cell-based; settings: CCG-1423 treatment, p<0.004
Source text: as §3

MKL1 = MKL1 cellular localization in C2C12 myoblasts; assay type: cell-based
IRS-1 = test: IR / IRS-1 tyrosine phosphorylation and p85 PI 3-kinase association in myotubes; assay type: cell-based
Source text: FIG. 11D is a phosphoimmunoblot showing that CCG-1423 increases basal and insulin-stimulated tyrosine phosphorylation of IRS-1 and its association with p85-PI 3-kinase, in both control and DEX-treated myotubes. * indicates p<0.05, **p<0.01, ***p<0.001.
as §1
(§4) In parallel, CCG-1423 enhanced insulin action in C2C12 myotubes. Overnight treatment with 1 μM CCG-1423 increased insulin-stimulated Akt phosphorylation, both in the presence and absence of dexamethasone (41% for both, p=0.01 and p=0.007, respectively), while having no effect on p42/44 ERK phosphorylation (FIG. 11C).

Akt = Akt phosphorylation in myotubes (phosphoimmunoblot); assay type: cell-based; settings: for increase of insulin-stimulated Akt phosphorylation: C2C12 myotubes
Procedure: as §2
The next experiments were performed to determine whether SRF transcriptional activity, rather than expression of SRF itself, is important for maintaining appropriate insulin sensitivity. A new compound, CCG-1423, is available for specifically inhibiting SRF transcriptional activity (Evelyn et al., Mol. Cancer. Ther. 6:2249-2260 (2007)). […] CCG-1423 was then evaluated to test the possibility that reducing SRF transcriptional activity improves insulin sensitivity. Indeed, this is the case. A dramatic improvement in insulin sensitivity resulted from treatment with CCG-1423 in dexamethasone-induced insulin resistant myotubes, as CCG-1423 increased insulin-simulated Akt phosphorylation (a marker of insulin sensitivity) (FIG. 11A).
as §4

L6 myotubes = test: 2-deoxyglucose uptake in L6 myotubes; assay type: cell-based; settings: CCG-1423 1 uM, 16 hours, FIG. 11E
Procedure: FIG. 11E is a line graph showing that both basal and insulin-stimulated 2-deoxyglucose uptake are increased by >4-fold in L6 myotubes following CCG-1423, with enhanced insulin sensitivity (1 uM, 16 hours). * indicates p<0.05, **p<0.01, ***p<0.001.

p42/44 ERK = test: ERK phosphorylation in C2C12 myotubes (phosphoimmunoblot); assay type: cell-based; settings: overnight 1 μM CCG-1423, FIG. 11C
Procedure: as §4

human myotubes = test: Basal glucose uptake in human myotubes from control and diabetic subjects; assay type: cell-based
Procedure: The effects of CCG-1423 on human myotubes, and whether these effects would differ in myotubes derived from controls (n=2) vs. diabetic subjects (n=6), were also evaluated. […] The differential responsiveness in subjects with DM supports the concept that SRF pathways are more robustly activated in humans with insulin resistance and DM, and therefore potentially more sensitive to SRF inhibition.

Compound: C/C1=C/C(=O)O[C@@H]2C[C@@H](CC[C@H](C)/C=C\CC1)O[C@@](O)([C@@H]1CSC(=O)N1)C2 [latrunculin B]
- increase of STARS expression (STARS): 50%

Compound: CCCCCCCCCCCCCCCC(=O)O [FFA]
- enrichment of MKL1-dependent and -independent SRF pathways [1]: significant enrichment
- SRF transcriptional activity at basal level ([2]; C2C12 myotubes, experimentally induced insulin resistance, FIG. 4): dramatically increased
- increase of SRF DNA binding activity compared to control (SRF): 5-10 fold

Compound: CC(ONC(=O)c1cc(C(F)(F)F)cc(C(F)(F)F)c1)C(=O)Nc1ccc(Cl)cc1 (stereo not shown) [CCG-1423]
- SRF target gene expression [3]: does not induces
- serum insulin levels during glucose tolerance test ([4]; 15 minutes after glucose injection, HFD+CCG vs vehicle-treated HFD, FIG. 13C): normalized; also recorded: significantly reduced
- expression of SRF or ELK1 ([4]; HFD mice, 0.15 mg/kg intraperitoneally, two weeks): did not alter
- expression of SRF targets in skeletal muscle, e.g., ZYX and PDLIM7 ([4]; HFD mice, 0.15 mg/kg intraperitoneally, two weeks, vs vehicle-injected controls): significantly decreased
- food intake ([4]; HFD mice, 0.15 mg/kg intraperitoneally, two weeks, vs vehicle-treated HFD mice): No significant change
- body weight ([4]; HFD mice, 0.15 mg/kg intraperitoneally, two weeks, vs vehicle-treated HFD mice, FIG. 12, 0.15 mg/kg): No significant change; also recorded: not altered
- glucose tolerance test area under the curve (AUC) ([4]; HFD+CCG vs vehicle-treated HFD animals, FIG. 13B, p<0.006): significantly reduced
- adiponectin levels ([4]; HFD-fed mice): No differences
- circulating fatty acid levels ([4]; HFD-fed mice): No differences
- insulin tolerance testing ([4]; HFD-fed mice): No differences
- in vivo glucose tolerance (intra peritoneal glucose tolerance test) ([4]; HFD-fed mice vs HFD-fed vehicle-treated controls, FIG. 13A): significantly improved; also recorded: improves
- insulin-stimulated deoxyglucose uptake response (C2C12 myotubes; myotubes incubated with CCG-1423, 1 uM insulin): 11.5 fold
- glucose uptake increase in the basal state (C2C12 myotubes; myotubes incubated with CCG-1423): 4 fold
- GLUT1 expression increase (GLUT1): 2.5 fold
- GLUT4 expression increase (GLUT4): 4.1 fold
- SRF-mediated transcriptional activity (4x CArG / SRE promoter activity) ([2]; C2C12 myoblasts, serum (FBS 2 hours) or dexamethasone stimulation, CCG-1423 1 uM, 16 hours pre-treatment, FIG. 11B): efficiently blocked
- SRF transcriptional activity induced by serum, dexamethasone, and insulin ([2]; C2C12 myotubes, FIG. 10): specifically block; also recorded: inhibits
- MKL1 localization (MKL1; compound alone): almost exclusively localized to the cytoplasm
- MKL1 localization, effect on dexamethasone-induced nuclear localization (MKL1; with dexamethasone): reversed dexamethasone-induced MKL1 nuclear localization to partial cytoplasmic localization
- p85 expression (IRS-1; C2C12 myotubes): without altering
- basal and insulin-stimulated tyrosine phosphorylation of IRS-1 and its association with p85 PI 3-kinase (IRS-1; control and DEX-treated myotubes, FIG. 11D): increases
- phosphorylation of IR and IRS-1 protein (IRS-1; with insulin stimulation): massive phosphorylation
- increase of insulin-stimulated Akt phosphorylation (Akt; overnight 1 μM CCG-1423, absence of dexamethasone, p=0.007): 41%
- increase of insulin-stimulated Akt phosphorylation (Akt; overnight 1 μM CCG-1423, presence of dexamethasone, p=0.01): 41%
- insulin-stimulated Akt phosphorylation (marker of insulin sensitivity) (Akt; dexamethasone-induced insulin resistant myotubes, FIG. 11A): increased; also recorded: improves
- insulin-stimulated Akt phosphorylation (Akt; insulin 100 nM, 10 minutes, FIG. 11C): increases
- basal and insulin-stimulated 2-deoxyglucose uptake increase (L6 myotubes): > 4 fold
- p42/44 ERK phosphorylation (p42/44 ERK): no effect; also recorded: minimal change
- basal increase in glucose uptake (mean) (human myotubes; myotubes from control subjects (n=2)): 1.2 fold
- basal increase in glucose uptake (mean) (human myotubes; myotubes from diabetic subjects (n=6)): 3.2 fold
